Laboratory results reported in ChEMBL document CHEMBL5634111, “Design, synthesis, and anti-respiratory syncytial virus potential of novel 3-(1,2,3-triazol-1-yl)furoxazine-fused benzimidazole derivatives” (Eur J Med Chem, 2023).

Legend:
[1] = Cytotoxicity against human HepG2 cells measured after 24 hrs by MTT assay; type: toxicity, cell-based
[2] = system: Respiratory syncytial virus; test: Antiviral activity against RSV infected in human HepG2 cells preincubated for 24 hrs followed by viral infection for 2 hrs and measured after 60 hrs by MTT assay; type: functional, organism-based
[3] = Selectivity index, ratio of CC50 for human HepG2 cells to EC50 for RSV infected in human HepG2 cells; type: toxicity, cell-based; details: read-out: Ratio CC50/EC50

Structure (SMILES): Brc1cc2nc3n(c2cc1Br)[C@H]1OC[C@H](n2cc(-c4ccccc4)nn2)[C@H]1OC3
- CC50 at 24 h [1]: 63.6 µM

Structure (SMILES): CCCCCCc1cn([C@H]2CO[C@H]3[C@@H]2OCc2nc4cc(Br)c(Br)cc4n23)nn1
- CC50 at 24 h [1]: 52.3 µM

Structure (SMILES): OCc1cn([C@H]2CO[C@H]3[C@@H]2OCc2nc4cc(Br)c(Br)cc4n23)nn1
- CC50 at 24 h [1]: 104 µM

Structure (SMILES): Cc1c(Br)cc2nc3n(c2c1Br)[C@H]1OC[C@H](n2cc(-c4ccccc4)nn2)[C@H]1OC3
- CC50 at 24 h [1]: 53.3 µM

Structure (SMILES): Brc1cc2nc3n(c2cc1Br)[C@H]1OC[C@H](n2cc(C4CC4)nn2)[C@H]1OC3
- CC50 at 24 h [1]: 40 µM
- EC50 [2]: 6.26 µM
- selectivity ratio [3]: 6.39

Structure (SMILES): CCOC(=O)c1cn([C@H]2CO[C@H]3[C@@H]2OCc2nc4cc(Br)c(Br)cc4n23)nn1
- CC50 at 24 h [1]: 26.9 µM

Structure (SMILES): OCCCc1cn([C@H]2CO[C@H]3[C@@H]2OCc2nc4cc(Br)c(Br)cc4n23)nn1
- CC50 at 24 h [1]: 150 µM

Structure (SMILES): Brc1cc2nc3n(c2cc1Br)[C@H]1OC[C@H](n2cc(COc4ccccc4)nn2)[C@H]1OC3
- CC50 at 24 h [1]: 121 µM
- EC50 [2]: 21.9 µM
- selectivity ratio [3]: 5.73

Structure (SMILES): OCCc1cn([C@H]2CO[C@H]3[C@@H]2OCc2nc4cc(Br)c(Br)cc4n23)nn1
- CC50 at 24 h [1]: 70.1 µM

Structure (SMILES): Cc1cn([C@H]2CO[C@H]3[C@@H]2OCc2nc4cc(Br)c(C)c(Br)c4n23)nn1
- CC50 at 24 h [1]: 94.6 µM
- EC50 [2]: 14.2 µM
- selectivity ratio [3]: 6.68

Structure (SMILES): CCCCCc1cn([C@H]2CO[C@H]3[C@@H]2OCc2nc4cc(Br)c(Br)cc4n23)nn1
- CC50 at 24 h [1]: 237 µM

Structure (SMILES): NC(=O)c1ncn([C@@H]2O[C@H](CO)[C@@H](O)[C@H]2O)n1 [RIBAVIRIN]
- CC50 at 24 h [1]: 246 µM
- EC50 [2]: 8.41 µM
- selectivity ratio [3]: 29.2
